Assays:
[1] = system: NIH3T3 cells expressing AcGFP-PDE5A fusions; assay: FACS analysis of C-terminal PDE5A mutants (AcGFP-PDE5A fusions), Sildenafil vs vehicle; type: cell-based, mouse; settings: Table 2, 24 hours; for Mean Fluorescence intensity: NIH3T3; for Stabilization ratio: fold change in GFP intensity, Sildenafil 10 μM vs vehicle alone
Experimental: (§1) The NIH3T3 cell line was cultured in DMEM supplemented with 10% heat-inactivated donor bovine serum (Invitrogen), 2 mM glutamine, 100 U/ml penicillin and 100 μg/ml streptomycin.
(§2) The ΦNX ecotropic packaging cell line was transfected using standard Lipofectamine 2000 protocols. Viral supernatants were harvested 48 hours, post transfection, filtered and concentrated 10-fold using Amicon Ultra centrifugal filter device with a 100kDa cutoff. NIH 3T3 cells were incubated with concentrated retroviral supernatants supplemented with 4 μg/ml polybrene for 4 hours at 37° C. Cells were washed once with PBS and cultured in growth media for 24-36 hours to allow for viral integration.
(§3) The transduced NIH3T3 cells were subjected to analysis using fluorescence-activated cell sorting (FACS) to screen the libraries of PDE5A mutants. 24 hours prior to analysis, transduced NIH3T3 cells were plated at 1×10^5 cells per well of a 12-well plate. Cells were removed from the plate using PBS and 2 mM EDTA, washed once with PBS, and resuspended in 200 μL, PBS. FACS analysis was performed on instruments at the Stanford Shared FACS Facility with 10,000 events represented.
(§4) To identify destabilizing domains that are responsive to the PDE5A ligand, Sildenafil, a cell-based screening assay was employed in which the fluorescence of green fluorescent protein derived from Aequorea coerulescens (AcGFP) served as an indicator of PDE5A stability. A library based on the PDE5A catalytic domain sequences was generated using error prone PCR and then cloned in-frame in front of AcGFP. A Moloney murine leukemia retroviral expression was used to stably integrate this library of PDE5A-AcGFP fusions into NIH-3T3 fibroblasts, and the transduced cells were subjected to three rounds of sorting using flow cytometry. In the first round, cells were treated with 10 μM of PDE5A ligand, Sildenafil for 16-24 before analysis. Fluorescent cells were collected and further cultured in the absence of ligand for 60 hours.
(§5) A library of AcGFP-PDE5A fusions i.e., C-terminal PDE5A mutants was screened using the cell-based screening assay described previously to identify C-terminal destabilizing domains. […] Identified candidates were subjected to further characterization by FACS. Cells were split into two treatment groups and incubated with either Sildenafil (10 μM) or vehicle alone for 24 hours. Cells that were mock transduced or transduced with the wild-type PDE5A construct were also included in the analysis. The stabilization ratio was calculated as the fold change in GFP intensity of the AcGFP-PDE5A construct in Sildenafil treated sample compared to vehicle alone treated sample. The results are presented in Table 2 where the C terminal PDE5A mutants are denoted as PDE5AC.
Residue D764 was identified as a mutational hotspot from sequence analysis. PDE5AC (#41) was engineered with either D764N or D764G mutation via site-directed mutagenesis. PDE5AC (#41) +D764N comprises the amino acid sequence of SEQ ID NO. 53 (encoded by SEQ ID NO. 54) and PDE5AC (#41) +D764G comprises the amino acid sequence of SEQ ID NO. 55 (encoded by SEQ ID NO. 56). AcGFP-PDE5A variants were evaluated for Sildenafil dependent stabilization via FACS as described previously. Results from FACS analysis are presented in Table 4 where the C terminal PDE5A mutants are denoted as PDE5AC. The stabilization ratio was calculated as the fold change in GFP intensity of the AcGFP-PDE5A construct in Sildenafil treated sample compared to vehicle alone treated sample.
Extended versions of human PDE5A that included residues in addition to catalytic domain (residues 535-860 of SEQ ID NO. 1) with Q589R polymorphism (SEQ ID NO. 11) were evaluated for use as C-terminal destabilizing domains. Three extended PDE5A sequences were tested that consisted of residues 535-875 of SEQ ID NO. 1 with Q589R polymorphism (SEQ ID NO. 13); residues 466-875 of SEQ ID NO. 1 with Q589R polymorphism (SEQ ID NO. 15); or residues 420-875 of SEQ ID NO. […]

PDE5A-AcGFP fusions = assay: FACS analysis of N-terminal PDE5A mutants (PDE5A-AcGFP fusions), Sildenafil vs vehicle; type: cell-based, mouse; settings: 24 hours; for Stabilization ratio: Sildenafil 20 μM vs vehicle alone; for Mean Fluorescence Intensity (MFI) Sildenafil (20 μM) / Mean Fluorescence Intensity (MFI) Vehicle control: NIH3T3; for Mean Fluorescence Intensity (MFI) Vehicle control: vehicle alone
Experimental: as §1, §2, §3, §4
as §5, with “PDE5A-AcGFP” for “AcGFP-PDE5A”, “N-terminal” for “C-terminal”, “mutants,” for “mutants”, “(20” for “(10”, “The results are presented in Table 6 where the N terminal PDE5A mutants are denoted as PDE5AN. The” for “The”, “sample.” for “sample. The results are presented in Table 2 where the C terminal PDE5A mutants are denoted as PDE5AC.”

[2] = target: T1, HCT 116 cells transduced with the PDE5A DD derived GFP constructs (Homo sapiens, UniProt O76074, K633E/K795E/K852E/Q589R/T712S); assay: Response to Tadalafil, GFP expression by FACS in HCT116; type: cell-based; settings: 48 hrs, HCT116
T1 construct: Mutations were created in PDE5A (535-860) catalytic domain using site directed mutagenesis; expressed in transfected cells; host or cells: HCT116 (lentiviral transduction, pELNS vector, sorted on mCherry)
Method in brief: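 HCT116 cells stably transduced (mCherry-sorted) with lentiviral PDE5A DD–AcGFP constructs, exposed to DMSO or Tadalafil 0.01–100 μM for 48 hrs. GFP mean fluorescence by FACS; stabilization ratio = ligand vs no-ligand signal, basal expression = no-ligand signal vs parental autofluorescence.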

[3] = Sildenafil (10 μM) −, vehicle alone

Substance	Mean Fluorescence intensity ([1]; Sildenafil (10 μM) +)	Mean Fluorescence intensity [1, 3]	Stabilization ratio [1]	Stabilization ratio (PDE5A-AcGFP fusions)	Mean Fluorescence Intensity (MFI) Sildenafil (20 μM) (PDE5A-AcGFP fusions)	Mean Fluorescence Intensity (MFI) Vehicle control (PDE5A-AcGFP fusions)	Tadalafil concentrations at which stabilization ratios greater than 1 were obtained [2]
PDE5AC (#13): AcGFP fused to C-terminal DD 535-860 of PDE5A (Q589R, Y676D, L738H), SEQ ID NO. 24	6284	1076	5.8	–	–	–	–
PDE5AC (#25): AcGFP fused to C-terminal DD 535-860 of PDE5A (Q541R, F559L, Q589R, H678R, I824T), SEQ ID NO. 35	2340	1452	1.6	–	–	–	–
PDE5AC (#28): AcGFP fused to C-terminal DD 535-860 of PDE5A (Q589R, K591E, N609H, D764V), SEQ ID NO. 25	6055	1382	4.4	–	–	–	–
PDE5AC (#43): AcGFP fused to C-terminal DD 535-860 of PDE5A (Q589R, N609H, Y676N, A762S), SEQ ID NO. 29	5518	1017	5.4	–	–	–	–
PDE5AC (#69): AcGFP fused to C-terminal DD 535-860 of PDE5A (Q589R, N636S, D687A, D764N, S815C), SEQ ID NO. 30	6365	1126	5.6	–	–	–	–
PDE5AN (#3): N-terminal DD 535-860 of PDE5A (Q589R, K633E, T712S, K852E, K795E), SEQ ID NO. 66, fused to AcGFP	–	–	–	3.97	3335	839	greater than 0.41 μM
PDE5AN (#53): N-terminal DD 535-860 of PDE5A (E536G, Q589R, C839S), SEQ ID NO. 67, fused to AcGFP	–	–	–	2.62	4440	1697	–

From US11891634B2, “PDE5A destabilizing domains” (The Board of Trustees of the Leland Stanford Junior …, priority 2017, dated 2024)
